target: T1, GlyT1 (Homo sapiens, UniProt P48067); assay: [14C]-glycine uptake in JAR cells (scintillation proximity, Cytostar T plates); type: cell-based; conditions: read-out: Potency
T1 construct: Human placental choriocarcinoma cells endogenously expressing GlyT1; host or cells: JAR cells (human placental choriocarcinoma)
T1 sequence (P48067 1-706): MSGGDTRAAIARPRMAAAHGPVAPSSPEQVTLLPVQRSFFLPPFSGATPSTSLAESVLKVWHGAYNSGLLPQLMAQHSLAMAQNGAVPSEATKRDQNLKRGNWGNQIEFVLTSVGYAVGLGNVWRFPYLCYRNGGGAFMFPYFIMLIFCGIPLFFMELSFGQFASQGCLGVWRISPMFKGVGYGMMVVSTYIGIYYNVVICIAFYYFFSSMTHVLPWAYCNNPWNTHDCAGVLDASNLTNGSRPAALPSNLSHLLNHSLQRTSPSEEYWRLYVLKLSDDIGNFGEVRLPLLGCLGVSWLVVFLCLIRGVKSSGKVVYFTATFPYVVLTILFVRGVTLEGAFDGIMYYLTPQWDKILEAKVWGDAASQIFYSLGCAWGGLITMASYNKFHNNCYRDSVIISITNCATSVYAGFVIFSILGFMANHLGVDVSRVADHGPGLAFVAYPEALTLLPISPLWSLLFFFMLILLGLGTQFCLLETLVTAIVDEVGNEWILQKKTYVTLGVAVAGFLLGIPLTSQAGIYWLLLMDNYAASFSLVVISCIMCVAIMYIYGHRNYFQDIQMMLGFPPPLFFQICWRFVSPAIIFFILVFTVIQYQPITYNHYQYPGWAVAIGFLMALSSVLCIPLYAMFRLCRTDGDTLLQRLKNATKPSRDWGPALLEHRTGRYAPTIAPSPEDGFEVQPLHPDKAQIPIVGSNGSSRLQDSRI
Method: Human placental choriocarcinoma cells endogenously expressing GlyT1 can be cultured using standard conditions. Cells can then be grown at 37° C. in a humidified atmosphere 40-48 hours before the assay. Culture medium can be removed from the culture plate, and cells can be incubated with an amount of TB1A buffer with or without the compounds of the present invention for a sufficient period of time. Then an amount of [^14C]-glycine diluted with TB1A can be added to each well. After incubation the microplates can be sealed and counted. Non-specific uptake of [^14C]-glycine can be determined in the presence of unlabeled glycine. To determine potencies, a range of concentrations of the compounds of the present invention can be added to the cells, followed by the fixed concentration of [^14C]-glycine. The concentration of the present compound that inhibited half of the specific uptake of [^14C]glycine (IC50 value) can be determined from the assay data by non-linear curve fitting.
The procedure used was analogous to that disclosed in Williams, J. B.; Mallorga P. J.; Lemaire W.; Williams D. L.; Na S.; Patel S.; Conn J. P.; Pettibone D. J.; Austin C.; Sur C.; “Development of a scintillation proximity assay for analysis of Na+/Cl−-dependent neurotransmitter transporter activity,” ANAL. BIOCHEM.
Cells were plated at a density of 1.3×10^4 cells/well and grown at 37° C. in a humidified atmosphere of 5% CO2 for 40-48 h. Culture medium was removed from the Cytostar T plate and JAR cells were incubated with 30 μl of TB1A buffer (120 mM NaCl, 2 mM KCl, 1 mM CaCl2, 1 mM MgCl2, 10 mM Hepes, 5 mM L-alanine, pH 7.5 adjusted with 1 M Tris base) with or without multiple concentrations of test compound (added at 2× final concentration) for 1 min. Then 30 μl of [^14C]-glycine (Perkin-Elmer) diluted in TB1A was added to each well to give a final concentration of 10 μM. Cytostar T plates were then incubated in the dark at room temperature for 3 h, sealed with opaque white bottom plate seals (Perkin-Elmer) and clear top plate seals (Topseal A, Perkin-Elmer), and were counted on a Top Count (Packard). Glycine uptake was determined by measuring radioactivity in each well and plotted as a function of concentration of test compound. […] Nonspecific uptake of [^14C]-glycine was determined in the presence of 10 mM cold glycine. [^14C]-taurine (American Radiolabeled Chemicals, Inc.) uptake experiments were performed according to the same protocol except that 10 mM cold taurine was used to determine nonspecific uptake. […] COS-7 cells were transiently transfected with the human GlyT2 cDNA (Origene Technologies Inc., SC303452) using Fugene 6 (Roche) according to the manufacturer's instructions in Dulbecco's modified Eagle's medium (DMEM, Invitrogen) containing 10% Fetal Bovine Serum, 10 mM HEPES, 1 mM sodium pyruvate, penicillin (100 μg/ml), and streptomycin (100 μg/ml). The following day, the cells were plated at a density of 5×10^5 cells/well in Cytostar T plates and maintained at 37° C. in a humidified atmosphere of 5% CO2 for 24 h. GlyT2 glycine uptake experiments were performed according to the same protocol previously described.

Structure (SMILES)	IC50
Cn1cnc(S(=O)(=O)N2CC3C(C2)C3(CNC(=O)c2ccc(Cl)cc2Cl)CC2CC2)c1 (stereo not drawn) [Compound 6a, 2,4-dichloro-N-((6-(cyclopropylmethyl)-3-(1-methyl-1H-imidazol-4-ylsulfonyl)-3-azabicyclo[3.1.0]hexan-6-yl)methyl)benzamide]	4.1 nM
Cn1cnc(S(=O)(=O)N2CC3C(C2)C3(CNC(=O)c2ccccc2Cl)CC2CC2)c1 (stereo not drawn) [Compound 6b]	18.6 nM
Cn1cnc(S(=O)(=O)N2CC3C(C2)C3(CNC(=O)c2ccc(Cl)cc2)CC2CC2)c1 (stereo not drawn) [Compound 6c]	32 nM
Cn1cnc(S(=O)(=O)N2CC3C(C2)C3(CNC(=O)c2ccc(Cl)c(Cl)c2)CC2CC2)c1 (stereo not drawn) [Compound 6d]	82 nM
Cn1cnc(S(=O)(=O)N2CC3C(C2)C3(CNC(=O)c2c(F)cccc2F)CC2CC2)c1 (stereo not drawn) [Compound 6e]	4 nM
Cn1cnc(S(=O)(=O)N2CC3C(C2)C3(CNC(=O)c2ccccc2C(F)(F)F)CC2CC2)c1 (stereo not drawn) [Compound 6f]	5 nM
Cn1cnc(S(=O)(=O)N2CC3C(C2)C3(CNC(=O)c2cccc(C(F)(F)F)c2)CC2CC2)c1 (stereo not drawn) [Compound 6g]	64 nM
Cn1cnc(S(=O)(=O)N2CC3C(C2)C3(CNC(=O)c2ccc(F)cc2F)CC2CC2)c1 (stereo not drawn) [Compound 6h]	44 nM
Cn1cnc(S(=O)(=O)N2CC3C(C2)C3(CNC(=O)c2cc(Cl)cc(Cl)c2)CC2CC2)c1 (stereo not drawn) [Compound 6i]	100 nM
Cn1cnc(S(=O)(=O)N2CC3C(C2)C3(CNC(=O)c2cccc(Cl)c2)CC2CC2)c1 (stereo not drawn) [Compound 6j]	119 nM
CCS(=O)(=O)N1CC2C(C1)C2(CNC(=O)c1ccc(Cl)cc1Cl)CC1CC1 (stereo not drawn) [Compound 8a]	1300 nM
CCCS(=O)(=O)N1CC2C(C1)C2(CNC(=O)c1ccc(Cl)cc1Cl)CC1CC1 (stereo not drawn) [Compound 8b]	361 nM
CC(C)S(=O)(=O)N1CC2C(C1)C2(CNC(=O)c1ccc(Cl)cc1Cl)CC1CC1 (stereo not drawn) [Compound 8c]	3400 nM
O=C(NCC1(CC2CC2)C2CN(S(=O)(=O)CC3CC3)CC21)c1ccc(Cl)cc1Cl (stereo not drawn) [Compound 8d, 2,4-Dichloro-N-((6-(cyclopropylmethyl)-3-(cyclopropylmethylsulfonyl)-3-azabicyclo[3.1.0]hexan-6-yl)methyl)benzamide]	231 nM

Next, values leading:

IC50	Structure (SMILES)
2100 nM	CCCS(=O)(=O)N1CC2C(C1)C2(CNC(=O)c1ccccc1F)CC1CC1 (stereo not drawn) [Compound 9a]
1200 nM	CCCS(=O)(=O)N1CC2C(C1)C2(CNC(=O)c1ccccc1Cl)CC1CC1 (stereo not drawn) [Compound 9b]
1850 nM	CCCS(=O)(=O)N1CC2C(C1)C2(CNC(=O)c1ccc(Cl)cc1)CC1CC1 (stereo not drawn) [Compound 9c]
4500 nM	CCCS(=O)(=O)N1CC2C(C1)C2(CNC(=O)c1cccc(C(F)(F)F)c1)CC1CC1 (stereo not drawn) [Compound 9d]
1100 nM	CCCS(=O)(=O)N1CC2C(C1)C2(CNC(=O)c1ccc(C(F)(F)F)cc1)CC1CC1 (stereo not drawn) [Compound 9e]
507 nM	CCCS(=O)(=O)N1CC2C(C1)C2(CNC(=O)c1ccc(F)cc1Cl)CC1CC1 (stereo not drawn) [Compound 9f]
688 nM	O=C(NCC1(CC2CC2)C2CN(S(=O)(=O)CC3CC3)CC21)c1ccccc1C(F)(F)F (stereo not drawn) [Compound 9g]
629 nM	O=C(NCC1(CC2CC2)C2CN(S(=O)(=O)CC3CC3)CC21)c1ccc(C(F)(F)F)cc1 (stereo not drawn) [Compound 9h]
1020 nM	O=C(NCC1(CC2CC2)C2CN(S(=O)(=O)CC3CC3)CC21)c1ccc(F)cc1F (stereo not drawn) [Compound 9i]
1020 nM	O=C(NCC1(CC2CC2)C2CN(S(=O)(=O)CC3CC3)CC21)c1c(F)cccc1F (stereo not drawn) [Compound 9j]
> 20000 nM	CS(=O)(=O)N1CC2C(C1)C2(CNC(=O)c1ccc(Cl)cc1Cl)c1ccccn1 (stereo not drawn) [Compound 12a]
> 20000 nM	CCS(=O)(=O)N1CC2C(C1)C2(CNC(=O)c1ccc(Cl)cc1Cl)c1ccccn1 (stereo not drawn) [Compound 12b]
> 20000 nM	CCCS(=O)(=O)N1CC2C(C1)C2(CNC(=O)c1ccc(Cl)cc1Cl)c1ccccn1 (stereo not drawn) [Compound 12c]
240 nM	Cn1cnc(S(=O)(=O)N2CC3C(C2)C3(CNC(=O)c2ccc(Cl)cc2Cl)c2ccccn2)c1 (stereo not drawn) [Compound 12d, 2,4-dichloro-N-((3-(1-methyl-1H-imidazol-4-ylsulfonyl)-6-(pyridine-2-yl)-3-azabicyclo[3.1.0]hexan-6-yl)methyl)benzamide]
> 20000 nM	Cn1cc(S(=O)(=O)N2CC3C(C2)C3(CNC(=O)c2ccc(Cl)cc2Cl)c2ccccn2)cn1 (stereo not drawn) [Compound 12e]
> 20000 nM	O=C(NCC1(c2ccccn2)C2CN(S(=O)(=O)c3ccccc3)CC21)c1ccc(Cl)cc1Cl (stereo not drawn) [Compound 12f]
> 20000 nM	O=C(NCC1(c2ccccn2)C2CN(S(=O)(=O)c3ccccn3)CC21)c1ccc(Cl)cc1Cl (stereo not drawn) [Compound 12g]
457 nM	Cn1cnc(S(=O)(=O)N2CC3C(C2)C3(CNC(=O)c2ccccc2Cl)c2ccccn2)c1 (stereo not drawn) [Compound 13a]
190 nM	Cn1cnc(S(=O)(=O)N2CC3C(C2)C3(CNC(=O)c2ccccc2C(F)(F)F)c2ccccn2)c1 (stereo not drawn) [Compound 13b, 2-Trifluoromethyl-N-((6-(pyridin-2-yl)-3-(1-methyl-1H-imidazol-4-ylsulfonyl)-3-azabicyclo[3.1.0]hexan-6-yl)methyl)benzamide]
